These results are taken from US20150126534A1, “ENZYME AND RECEPTOR MODULATION” (Chroma Therapeutics Ltd, priority 2005, published 2015).

One test deals with T1, human aurora kinase A (Homo sapiens, UniProt O14965).
T1 construct: recombinant, full length human aurora kinase A, N-terminally fused to GST; GST (N); purchased ProQuinase (so in the source); host or cells: baculovirus / Sf21 insect cells
T1 sequence (O14965 1-403): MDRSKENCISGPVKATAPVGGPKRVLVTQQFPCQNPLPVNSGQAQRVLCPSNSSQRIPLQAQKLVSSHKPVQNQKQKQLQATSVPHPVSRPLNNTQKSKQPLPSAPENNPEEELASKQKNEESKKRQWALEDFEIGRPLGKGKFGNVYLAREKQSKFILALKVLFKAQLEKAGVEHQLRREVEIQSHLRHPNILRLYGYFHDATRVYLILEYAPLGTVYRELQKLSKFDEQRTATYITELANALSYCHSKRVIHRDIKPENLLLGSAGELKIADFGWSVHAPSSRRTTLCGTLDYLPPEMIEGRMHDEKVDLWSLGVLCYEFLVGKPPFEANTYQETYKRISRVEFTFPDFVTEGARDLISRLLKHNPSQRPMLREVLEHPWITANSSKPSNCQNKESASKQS
As to the kind of experiment: Aurora kinase A inhibitory activity assay (Flashplate, 33P-ATP). Format: biochemical. To be noted: 10 μM ATP; read-out: Enzyme inhibition IC50 nM (Aurora kinase A). Here is the method: The ability of compounds to inhibit aurora kinase A activity was measured using a microplate assay. In brief, 96-well Flashplates® (PerkinElmer Life Sciences) were pre-coated with myelin basic protein (MBP). MBP (100 ul of […] in PBS) was incubated at 37° C. for 1 h, followed by overnight incubation at 4° C. Plates were then washed with PBS and allowed to air dry.
Wells lacking inhibitor were used as vehicle controls and wells containing no enzyme were used to measure the ‘background’ signal. Plates were incubated overnight at 30° C. After incubation the contents of the wells were removed and the plates washed three times with PBS containing 10 mM tetra sodium pyrophosphate prior to scintillation counting using a Wallac MicroBeta TriLux.
Dose response curves were generated from 10 concentrations (top final concentration 10 μM, with 3-fold dilutions), using triplicate wells.
[…] values were determined by non-linear regression analysis, after fitting the data point results to the equation for sigmoidal dose response with variable slope (% activity against log concentration of compound), using Xlf it software.

Test [1] deals with U937 cells (monocytic cell line). As to the kind of experiment: Cell proliferation inhibition assay (WST-1), U937. The class given is cell-based. As to conditions: for IC50: Homo sapiens. Here is the method: (§1) Following 24 h of growth cells were treated with compound. Plates were then re-incubated for a further 72-96 h before a WST-1 cell viability assay was conducted according to the suppliers (Roche Applied Science) instructions.
(§2) Data were expressed as a percentage inhibition of the control, measured in the absence of inhibitor, as follows: —
(§3) where S^i is the signal in the presence of inhibitor and S^o is the signal in the presence of DMSO.
(§4) Dose response curves were generated from 8 concentrations (top final concentration 10 μM, with 3-fold dilutions), using 6 replicates.
On the technique in general: Formazan colour is commonly taken as a measure of viable cells.

Test [2] deals with TNFα production in human whole blood. As to the kind of experiment: LPS-stimulation of human whole blood, TNF-α ELISA. The class given is cell-based. As to conditions: for IC50: Homo sapiens, 6 h; for Ratio IC50 WB/enzyme: whole blood TNFα IC50 / P38 MAP kinase IC50. As for the experimental part: Whole blood was taken by venous puncture using heparinised vacutainers (Becton Dickinson) and diluted in an equal volume of RPMI1640 tissue culture media. 100 μl was plated in V-bottomed 96 well tissue culture plates. Inhibitor was added in 100 μl of RPMI1640 media, and 2 h later the blood was stimulated with LPS (E coli strain 005:B5, Sigma) at a final concentration of 100 ng/ml and incubated at 37° C. in 5% CO2 for 6 h. TNF-α levels were measured from cell-free supernatants by sandwich ELISA (R&D Systems #QTA00B).
(In an ELISA, binding on a coated surface is turned into a signal by an enzyme label.)

Another test deals with T2, p38 MAP kinase α (Homo sapiens, UniProt Q16539).
T2 construct: full length human enzyme expressed in E coli as an N-terminally GST-tagged protein; GST (N); purchased Upstate (Dundee UK), assay run by the vendor; host or cells: E. coli
As to the kind of experiment: P38 MAP kinase α inhibitory activity assay. Format: biochemical. As to conditions: ATP 90 μM; read-out: Enzyme inhibition IC50 nM (P38 MAP kinase). Here is the method: The ability of compounds to inhibit p38 MAP kinase α (full length human enzyme expressed in E coli as an N-terminally GST-tagged protein) activity was measured in an assay performed by Upstate (Dundee UK). […] The reaction was initiated by the addition of the MgATP mix. After incubation for 40 minutes at room temperature, the reaction was stopped by the addition of 5 μl of a 3% phosphoric acid solution. 10 μl of the reaction was then spotted onto a P30 filtermat and washed three times for 5 minutes in 75 mM phosphoric acid and once in methanol, prior to drying and scintillation counting.
Dose response curves were generated from a ½ log dilution series of a stock inhibitor solution in DMSO. Nine dilutions steps were made from a top, final concentration of 10 μM, and a ‘no compound’ blank was included. Samples were run in duplicate. Data from scintillation counts were collected and subjected to free-fit analysis by Graphpad Prism software. From the curve generated, the concentration giving 50% inhibition was determined.

The test system of test [3] is HCT116 (non-monocytic cell line). Description: Cell proliferation inhibition assay (WST-1), HCT116. Format: cell-based. As to conditions: for Ratio IC50 cell/enzyme: HCT116 cell proliferation IC50 / DHFR enzyme IC50; for IC50: Homo sapiens. Here is the method: as §1, §2, §3, §4
Where [4] appears, read: U-937, U937 monocytic cell line, read-out: Cell proliferation IC50 nM (U937 cells).
The mark [5] stands for this setting: U937 cell proliferation IC50 / Aurora kinase A IC50.
Setting [6] is: LPS 100 ng/ml, read-out: Inhibition of TNFα production in human whole blood IC50.
Where [7] appears, read: U-937, read-out: Cell proliferation IC50 nM (U937 cells).
[8] abbreviates: U937 cell proliferation IC50 / DHFR enzyme IC50.
The mark [9] stands for this setting: HCT-116, HCT116 non-monocytic cell line, read-out: Cell proliferation IC50 nM (HCT116).

Structures can show the parent of a compound that is named as a salt. Where two headings read alike, the source gives them in different places. Bounds are passed on as bounds.

T2 sequence (Q16539 whole entry): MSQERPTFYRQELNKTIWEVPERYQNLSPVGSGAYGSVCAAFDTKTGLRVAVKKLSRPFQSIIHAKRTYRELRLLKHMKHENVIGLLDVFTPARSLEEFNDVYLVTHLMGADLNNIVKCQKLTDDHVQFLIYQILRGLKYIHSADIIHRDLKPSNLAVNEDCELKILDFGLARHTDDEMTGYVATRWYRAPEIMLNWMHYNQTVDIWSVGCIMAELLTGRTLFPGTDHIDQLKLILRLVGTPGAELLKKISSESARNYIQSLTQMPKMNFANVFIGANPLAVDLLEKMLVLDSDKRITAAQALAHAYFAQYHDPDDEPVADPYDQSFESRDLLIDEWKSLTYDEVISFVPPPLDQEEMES

As to `COc1cc2nccc(Oc3ccc(NC(=O)c4ccccc4)cc3)c2cc1OC` [Compound 11, N-{4-(7-methoxy-6-methoxy-quinoline-4-yloxy)-phenyl}-benzamide, reference compound], the IC50 was determined as 350 nM at human aurora kinase A and 430 nM in test [1] (setting [4]). Besides, the “Ratio IC50 cell/enzyme” value in test [1] (setting [5]) was determined as 1.3.

For the molecule `COc1cc2c(Oc3ccc(NC(=O)c4ccccc4)cc3)ccnc2cc1OCC[C@H](N)C(=O)OC(C)(C)C` [Compound 14, (S)-2-Amino-4-[4-(4-benzoylamino-phenoxy)-6-methoxy-quinolin-7-yloxy]-butyric acid tert-butyl ester], the IC50 at human aurora kinase A came out at 3000 nM; in test [1] (setting [4]), 75 nM. The “fold less active in the cell assay than cyclopentyl ester (Compound 12)” value in test [1] (U937 cell proliferation) is approximately 20 fold. Also, the “Ratio IC50 cell/enzyme” value in test [1] (setting [5]) was 0.025.

For `COc1cc2c(Oc3ccc(NC(=O)c4ccccc4)cc3)ccnc2cc1OCC[C@H](N)C(=O)OC1CCCC1` [Compound 12, (S)-2-amino-4-[4-(4-benzoylamino-phenoxy)-6-methoxy-quinolin-7-yloxy]-butyric acid cyclopentyl ester], the IC50 at human aurora kinase A was 2300 nM; in test [1] (setting [4]), 3.5 nM. Also, the “Ratio IC50 cell/enzyme” value in test [1] (setting [5]) is given as 0.0015.

For `CC(C)(C)OC(=O)[C@@H](N)CCOc1cc(F)c(-n2c(N)c(C(=O)c3ccc(F)cc3F)ccc2=O)c(F)c1` [Compound 18, (S)-2-Amino-4-{4-[6-amino-5-(2,4-difluoro-benzoyl)-2-oxo-2H-pyridin-1-yl]-3,5-difluoro-phenoxy}-butyric acid tert-butyl ester], the IC50 is 750 nM in test [2] (setting [6]) and 40 nM at p38 MAP kinase α. For the same molecule, in test [2], the “Ratio IC50 WB/enzyme” value was found to be 18.

As for `Nc1c(C(=O)c2ccc(F)cc2F)ccc(=O)n1-c1c(F)cccc1F` [Compound 15, 6-Amino-5-(2,4-difluoro-benzoyl)-1-(2,6-difluoro-phenyl)-1H-pyridin-2-one, reference compound], the IC50 came out at 300 nM in test [2] (setting [6]) and 50 nM at p38 MAP kinase α. In addition, the “Ratio IC50 WB/enzyme” value in test [2] came to 6.

`COc1cc(NCc2cnc3nc(N)nc(N)c3c2C)cc(OC)c1OC` [Compound 2 G = N, 5-Methyl-6-((3,4,5-trimethoxyphenylamino)methyl)pyrido[2,3-d]pyrimidine-2,4-diamine, reference compound]: the “Ratio IC50 cell/enzyme” value in test [3] is reported as 170; in test [1] (setting [8]), 220. The IC50 in test [3] (HCT-116, read-out: Cell proliferation IC50 nM (HCT116)) came to 1700 nM; in test [1] (setting [7]), 2200 nM. In test [1] (U937 versus HCT116), the “selectivity between a monocytic and non-monocytic cell line (cell proliferation)” value is reported as “no selectivity”.

Turning to `O=C(CCCCCCC(=O)Nc1ccccc1)NO` [Compound 7, Suberoylanilide hydroxamic acid, reference compound], in test [1] (setting [7]), the IC50 was 400 nM.

On to `COc1cc2c(Oc3ccc(NC(=O)c4ccccc4)cc3)ccnc2cc1OCC[C@H](N)C(=O)O` [Compound 13], for which the IC50 at human aurora kinase A was 500 nM; in test [1] (setting [4]), more than 5000 nM.

As to `Cc1c(CNc2ccc(OCC[C@H](N)C(=O)OC3CCCC3)cc2)cnc2nc(N)nc(N)c12` [Compound 3, (S)-2-Amino-4-{4-[(2,4-diamino-5-methyl-pyrido[2,3-d]pyrimidin-6-ylmethyl)-amino]-phenoxy}-butyric acid cyclopentyl ester], the “Ratio IC50 cell/enzyme” value in test [3] stood at 1.4; in test [1] (setting [8]) it was 1.9. In addition, the values for the IC50 in test [3] (setting [9]) and in test [1] (setting [4]) were 7300 nM and 5100 nM, respectively.

As to `Nc1c(C(=O)c2ccc(F)cc2F)ccc(=O)n1-c1c(F)cc(OCC[C@H](N)C(=O)OC2CCCC2)cc1F` [Compound 16, cyclopentyl (S)-2-Amino-4-(4-[6-amino-5-(2,4-difluorobenzoyl)-2-oxo-2H-pyridin-1-yl]-3,5-difluorophenoxy)butanoate trifluoroacetate], the IC50 in test [2] (read-out: Inhibition of TNFα production in human whole blood IC50 nM) is 20 nM; on p38 MAP kinase α, 25 nM. In test [2], the “Ratio IC50 WB/enzyme” value turned out to be 0.8.

For `COc1cc2c(Oc3ccc(NC(=O)c4ccccc4)cc3)ccnc2cc1OCC[C@H](NC1CCCCC1)C(=O)OC1CCCC1` [Compound 25, (S)-4-[4-(4-Benzoylamino-phenoxy)-6-methoxy-quinolin-7-yloxy]-2-cyclohexylamino-butyric acid cyclopentyl ester], the results for the IC50 in test [3] (setting [9]) and in test [1] (setting [4]) were 6100 nM and 1900 nM, respectively.

Regarding `Nc1c(C(=O)c2ccc(F)cc2F)ccc(=O)n1-c1c(F)cc(OCC[C@H](N)C(=O)O)cc1F` [Compound 17, (S)-2-Amino-4-(4-[6-amino-5-(2,4-difluorobenzoyl)-2-oxo-2H-pyridin-1-yl]-3,5-difluorophenoxy)butanoic acid], at p38 MAP kinase α, the IC50 was 30 nM.

With `Cc1c(CNc2ccc(C(=O)N[C@@H](CC(C)C)C(=O)OC3CCCC3)cc2)cnc2nc(N)nc(N)c12` [Compound 6, (S)-2-{4-[(2,4-Diamino-5-methyl-pyrido[2,3-d]pyrimidin-6-ylmethyl)-amino]-benzoylamino}-4-methyl-pentanoic acid cyclopentyl ester], the “fold more potent than the unmodified analogue (2 G=N)” value is reported as 15 fold in test [3] (HCT116) and 100 fold in test [1] (U937 cells). Moreover, the “Ratio IC50 cell/enzyme” value in test [3] was found to be 0.04; in test [1] (setting [8]) it was 0.013. Also, the IC50 came out at 110 nM in test [3] (setting [9]) and 23 nM in test [1] (setting [4]).
